# Assay results taken from patent publication US12084472B2 (Ardelyx, Inc., priority 2015, dated 2024).
# Biological target: T1, human TGR5 (Homo sapiens, UniProt Q8TDU6)
# T1 construct: expressed in transfected cells; host or cells: HEK293
# T1 sequence (Q8TDU6 1-330): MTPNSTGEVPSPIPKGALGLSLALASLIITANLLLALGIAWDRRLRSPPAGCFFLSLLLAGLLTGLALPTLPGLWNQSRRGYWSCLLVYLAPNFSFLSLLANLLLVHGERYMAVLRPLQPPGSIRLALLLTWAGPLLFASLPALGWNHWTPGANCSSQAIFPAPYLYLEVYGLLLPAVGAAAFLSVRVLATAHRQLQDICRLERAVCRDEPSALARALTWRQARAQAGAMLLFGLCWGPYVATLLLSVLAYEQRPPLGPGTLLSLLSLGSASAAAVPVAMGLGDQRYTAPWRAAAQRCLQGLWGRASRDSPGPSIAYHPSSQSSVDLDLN
# Assay: Cell-based TGR5 assay (cAMP generation, HTRF)
# Conditions: HEK293 cells stably transfected with human TGR5; cAMP by HTRF; 30 minutes at 37° C.; read-out: pEC50 Human TGR5 (converted)
# How it was run: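 First, compounds in 3-fold serial dilution were placed in HBSS with 10 mM HEPES pH 7.4 and 0.5 mM IBMX. Next, human TGR5-expressing HEK293 cells were added and incubated 30 min at 37° C. Finally, cAMP was detected by HTRF and pEC50 derived by logistic fitting.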
row,EC50 [nM],Structure (SMILES)
1,< 100,"CN(CC(=O)O)C[C@H](NC(=O)CCCCc1cc(Cl)c(COC2(c3cnccc3-c3ccccc3OC3CC3)CC2)cc1Cl)[C@@H](O)[C@H](O)[C@H](O)CO (stereo in doubt) [Compound I-164, 2-{[(2S,3R,4S,5R)-2-{5-[2,5-dichloro-4-({1-[4-(2-cyclopropoxyphenyl)pyridin-3-yl]cyclopropoxy}methyl)phenyl]pentanamido}-3,4,5,6-tetrahydroxyhexyl](methyl)amino}acetic acid]"
2,1260 to 10000,"Cc1ccc(SCCCCC(=O)N(C)C[C@H](O)[C@@H](O)[C@H](O)[C@H](O)CO)nc1COC1(c2cnccc2-c2ccccc2OC2CC2)CC1 [Compound I-658, 5-{[6-({1-[4-(2-cyclopropoxyphenyl)pyridin-3-yl]cyclopropoxy}methyl)-5-methylpyridin-2-yl]sulfanyl}-N-methyl-N-[(2S,3R,4R,5R)-2,3,4,5,6-pentahydroxyhexyl]pentanamide]"
3,< 100,"Clc1ccc(Cl)c(CNC2(c3cnccc3-c3ccccc3OC3CC3)CC2)c1 [Compound I-1, 1-[4-(2-cyclopropoxyphenyl)pyridin-3-yl]-N-[(2,5-dichlorophenyl)methyl]cyclopropan-1-amine]"
4,126 to 1000,"COCCCN(C[C@H](O)[C@@H](O)[C@H](O)[C@H](O)CO)C(=O)CCCCc1cc(Cl)c(COC2(c3cnccc3-c3ccccc3OC3CC3)CC2)cc1Cl [Compound I-220, 5-[2,5-dichloro-4-({1-[4-(2-cyclopropoxyphenyl)pyridin-3-yl]cyclopropoxy}methyl)phenyl]-N-(3-methoxypropyl)-N-[(2S,3R,4R,5R)-2,3,4,5,6-pentahydroxyhexyl]pentanamide]"
5,< 100,"CN(CCCCNC(=O)NC[C@H](O)[C@@H](O)[C@H](O)[C@H](O)CO)S(=O)(=O)c1ccc(Cl)c(COC2(c3cnccc3-c3ccccc3OC3CC3)CC2)c1 (stereo in doubt) [Compound I-402, 1-{4-[N-methyl4-chloro-3-({1-[4-(2-cyclopropoxyphenyl)pyridin-3-yl]cyclopropoxy}methyl)benzenesulfonamido]butyl}-3-[(2S,3R,4R,5R)-2,3,4,5,6-pentahydroxyhexyl]urea]"
6,126 to 1000,"COCCNC(=O)N(CCCCc1cc(Cl)c(COC2(c3cnccc3-c3ccccc3OC3CC3)CC2)cc1Cl)C[C@H](O)[C@@H](O)[C@H](O)[C@H](O)CO [Compound I-76, 1-{4-[2,5-dichloro-4-({1-[4-(2-cyclopropoxyphenyl)pyridin-3-yl]cyclopropoxy}methyl)phenyl]butyl}-3-(2-methoxyethyl)-1-[(2S,3R,4R,5R)-2,3,4,5,6-pentahydroxyhexyl]urea]"
7,< 100,"O=C([C@@H](O)[C@@H](O)[C@H](O)[C@@H](O)CO)N(CCCO)CCCCc1cc(Cl)c(COC2(c3cnccc3-c3ccccc3OC3CC3)CC2)cc1Cl [Compound I-217, (2S,3S,4R,5S)-N-{4-[2,5-dichloro-4-({1-[4-(2-cyclopropoxyphenyl)pyridin-3-yl]cyclopropoxy}methyl)phenyl]butyl}-2,3,4,5,6-pentahydroxy-N-(3-hydroxypropyl)hexanamide]"
8,< 100,"CN(C[C@H](O)[C@@H](O)[C@H](O)[C@H](O)CO)C(=O)CCCCSc1ccc(Cl)c(CNC2(c3cnccc3-c3ccccc3OC3CC3)CC2)c1 [Compound I-678, 5-({4-chloro-3-[({1-[4-(2-cyclopropoxyphenyl)pyridin-3-yl]cyclopropyl}amino)methyl]phenyl}sulfanyl)-N-methyl-N-[(2S,3R,4R,5R)-2,3,4,5,6-pentahydroxyhexyl]pentanamide]"
9,126 to 1000,"O=C(NCCCCc1ccc(Cl)c(CNC2(c3cnccc3-c3ccccc3OC3CC3)CC2)c1)NC[C@H](O)[C@@H](O)[C@H](O)[C@H](O)CO (stereo in doubt) [Compound I-241, 1-(4-{4-chloro-3-[({1-[4-(2-cyclopropoxyphenyl)pyridin-3-yl]cyclopropyl}amino)methyl]phenyl}butyl)-3-[(2S,3R,4R,5R)-2,3,4,5,6-pentahydroxyhexyl]urea]"
10,< 100,"CN(CCCCSc1ccc(Cl)c(COC2(c3cnccc3-c3ccccc3OC3CC3)CC2)c1)C(=O)[C@@H](O)[C@@H](O)[C@H](O)[C@@H](O)CO [Compound I-510, (2S,3S,4R,5S)-N-(4-{[4-chloro-3-({11-[4-(2-cyclopropoxyphenyl)pyridin-3-yl]cyclopropoxy}methyl)phenyl]sulfanyl}butyl)-2,3,4,5,6-pentahydroxy-N-methylhexanamide]"
11,< 100,"CC(=O)N(CCCCCSc1ccc(Cl)c(CNC2(c3cnccc3-c3ccccc3OC3CC3)CC2)c1)C[C@H](O)[C@@H](O)[C@H](O)[C@H](O)CO [Compound I-499, N-[5-({4-chloro-3-[({1-[4-(2-cyclopropoxyphenyl)pyridin-3-yl]cyclopropyl}amino)methyl]phenyl}sulfanyl)pentyl]-N-[(2S,3R,4R,5R)-2,3,4,5,6-pentahydroxyhexyl]acetamide]"
12,< 100,"O=C([C@@H](O)[C@@H](O)[C@H](O)[C@@H](O)CO)N(CCCCCO)CCCCCSc1ccc(Cl)c(CNC2(c3cnccc3-c3ccccc3OC3CC3)CC2)c1 [Compound I-601, (2S,3S,4R,5S)-N-[5-({4-chloro-3-[({1-[4-(2-cyclopropoxyphenyl)pyridin-3-yl]cyclopropyl}amino)methyl]phenyl}sulfanyl)pentyl]-2,3,4,5,6-pentahydroxy-N-(5-hydroxypentyl)hexanamide]"
13,126 to 1000,"Clc1ccc(Cl)c(COC2(c3cnccc3-c3ccccc3OC3CC3)CCCC2)c1 [Compound I-742, 4-(2-cyclopropoxyphenyl)-3-(1-((2,5-dichlorobenzyl)oxy)cyclopentyl)pyridine]"
14,126 to 1000,"CC(CCCN(CCN1CCNC1=O)C(=O)[C@@H](O)[C@@H](O)[C@H](O)[C@@H](O)CO)c1ccc(Cl)c(CNC2(c3cnccc3-c3ccccc3OC3CC3)CC2)c1 (stereo partly drawn) [Compound I-277, (2S,3S,4R,5S)-N-(4-{4-chloro-3-[({1-[4-(2-cyclopropoxyphenyl)pyridin-3-yl]cyclopropyl}amino)methyl]phenyl}pentyl)-2,3,4,5,6-pentahydroxy-N-[2-(2-oxoimidazolidin-1-yl)ethyl]hexanamide]"
15,< 100,"CC(CCCCNC(=O)NC[C@H](O)[C@@H](O)[C@H](O)[C@H](O)CO)c1ccc(Cl)c(CNC2(c3cnccc3-c3ccccc3OC3CC3)CC2)c1 (stereo partly drawn) [Compound I-267, 1-(5-{4-chloro-3-[({1-[4-(2-cyclopropoxyphenyl)pyridin-3-yl]cyclopropyl}amino)methyl]phenyl}hexyl)-3-[(2S,3R,4R,5R)-2,3,4,5,6-pentahydroxyhexyl]urea]"
16,126 to 1000,"O=C(CC1CCN(S(=O)(=O)c2ccc(Cl)c(COC3(c4cnccc4-c4ccccc4OC4CC4)CC3)c2)CC1)NC[C@H](O)[C@@H](O)[C@H](O)[C@H](O)CO [Compound I-441, 2-{1-[4-chloro-3-({1-[4-(2-cyclopropoxyphenyl)pyridin-3-yl]cyclopropoxy}methyl)benzenesulfonyl]piperidin-4-yl}-N-[(2S,3R,4R,5R)-2,3,4,5,6-pentahydroxyhexyl]acetamide]"
17,< 100,"Cc1ccc(CCCCC(=O)NC[C@H](O)[C@@H](O)[C@H](O)[C@H](O)CO)cc1COC1(c2cnccc2-c2ccccc2OC2CC2)CC1 (stereo in doubt) [Compound I-235, 5-[3-({1-[4-(2-cyclopropoxyphenyl)pyridin-3-yl]cyclopropoxy}methyl)-4-methylphenyl]-N-[(2S,3R,4R,5R)-2,3,4,5,6-pentahydroxyhexyl]pentanamide]"
18,126 to 1000,"CC(CCCN)c1ccc(Cl)c(CNC2(c3cnccc3-c3ccccc3OC3CC3)CC2)c1 (stereo not shown) [Compound I-252, N-{[5-(5-aminopentan-2-yl)-2-chlorophenyl]methyl}-1-[4-(2-cyclopropoxyphenyl)pyridin-3-yl]cyclopropan-1-amine]"
19,< 100,"O=C(NCCCCNS(=O)(=O)c1ccc(Cl)c(COC2(c3cnccc3-c3ccccc3OC3CC3)CC2)c1)NC[C@H](O)[C@@H](O)[C@H](O)[C@H](O)CO (stereo in doubt) [Compound I-401, 1-{4-[4-chloro-3-({1-[4-(2-cyclopropoxyphenyl)pyridin-3-yl]cyclopropoxy}methyl)benzenesulfonamido]butyl}-3-[(2S,3R,4R,5R)-2,3,4,5,6-pentahydroxyhexyl]urea]"
20,< 100,"CC(CCCN(CCOCCO)C(=O)[C@@H](O)[C@@H](O)[C@H](O)[C@@H](O)CO)c1ccc(Cl)c(CNC2(c3cnccc3-c3ccccc3OC3CC3)CC2)c1 (stereo partly drawn) [Compound I-286, (2S,3S,4R,5S)-N-(4-{4-chloro-3-[({1-[4-(2-cyclopropoxyphenyl)pyridin-3-yl]cyclopropyl}amino)methyl]phenyl}pentyl)-2,3,4,5,6-pentahydroxy-N-[2-(2-hydroxyethoxy)ethyl]hexanamide]"
21,< 100,"CC(=O)N(CCCC(C)c1ccc(Cl)c(CNC2(c3cnccc3-c3ccccc3OC3CC3)CC2)c1)C[C@H](O)[C@@H](O)[C@H](O)[C@H](O)CO (stereo partly drawn) [Compound I-377, N-(4-{4-chloro-3-[({1-[4-(2-cyclopropoxyphenyl)pyridin-3-yl]cyclopropyl}amino)methyl]phenyl}pentyl)-N-[(2S,3R,4R,5R)-2,3,4,5,6-pentahydroxyhexyl]acetamide]"

row,Structure (SMILES),EC50 [nM]
1,"CC(C)(C)OCc1ccccc1-c1ccncc1C1(NCc2cc(Cl)ccc2Cl)CC1 [Compound I-13, 1-(4-{2-[(tert-butoxy)methyl]phenyl}pyridin-3-yl)-N-[(2,5-dichlorophenyl)methyl]cyclopropan-1-amine]",126 to 1000
